# Tested on: models of chronic and acute inflammatory diseases
# Test: not given
# Conditions: MRL/lpr lupus, hemorrhagic shock in rats, CLP sepsis, DSS-colitis, ApoE-/- arteriosclerosis, diabetic wound healing models; cited from earlier work
row,Compound,"clinical, inflammatory, histopathological and mechanical end points, NETosis, outcome"
1,NC(=O)[C@H](CCCN=C(N)CCl)NC(=O)c1ccccc1 [chloroamidine],"reduction of clinical, inflammatory, histopathological and mechanical end points"
2,YW3-56,"reduction of clinical, inflammatory, histopathological and mechanical end points"

# Tested on: murine CIA model
# Test: not given
# Conditions: prophylactic treatment; cited from earlier work
row,Compound,clinical and histological scores
1,NC(=O)[C@H](CCCN=C(N)CCl)NC(=O)c1ccccc1 [chloroamidine],improvement of clinical and histological scores
2,GSK199,improvement of clinical and histological scores

# Biological target: T1, human PAD4 (Homo sapiens, UniProt Q9UM07)
# T1 construct: human PAD4 (NM_012387), A2P663, was PCR amplified; His-SUMO (N, cleaved yes); made in house; host or cells: E. coli BL21(DE3)
# T1 sequence (Q9UM07 2-663): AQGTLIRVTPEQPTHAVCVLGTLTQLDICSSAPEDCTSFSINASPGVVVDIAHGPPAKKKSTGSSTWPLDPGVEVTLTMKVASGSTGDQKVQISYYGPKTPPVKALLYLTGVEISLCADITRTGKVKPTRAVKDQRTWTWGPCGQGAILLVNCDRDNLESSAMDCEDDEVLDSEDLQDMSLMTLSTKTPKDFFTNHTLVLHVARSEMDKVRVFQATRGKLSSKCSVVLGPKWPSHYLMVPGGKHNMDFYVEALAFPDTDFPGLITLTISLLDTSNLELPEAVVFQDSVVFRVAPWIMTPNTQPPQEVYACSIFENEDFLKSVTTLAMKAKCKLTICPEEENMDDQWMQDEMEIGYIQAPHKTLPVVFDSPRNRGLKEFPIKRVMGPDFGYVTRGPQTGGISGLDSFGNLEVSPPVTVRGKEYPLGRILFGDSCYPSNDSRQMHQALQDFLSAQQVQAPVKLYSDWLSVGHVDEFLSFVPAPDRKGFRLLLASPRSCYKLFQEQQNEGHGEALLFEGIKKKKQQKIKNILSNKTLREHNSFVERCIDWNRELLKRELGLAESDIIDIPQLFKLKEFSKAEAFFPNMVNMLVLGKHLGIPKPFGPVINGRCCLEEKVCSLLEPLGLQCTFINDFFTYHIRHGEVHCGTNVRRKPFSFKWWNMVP
# Test: In vitro PAD4 BAEE biochemical assay
# Conditions: human PAD4, BAEE substrate; 5 nM PAD4, 2 mM calcium chloride, 3 mM BAEE; geometric mean of multiple experiments
# How it was run: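 Tag-free recombinant hPAD4 (5 nM), 2 mM CaCl2, 3 mM BAEE, 50 mM MOPS pH 7.6, 2 mM DTT; 30 min compound preincubation, 2 h reaction, all 25 °C. EDTA quench; ammonia read via o-phthalaldehyde amine coupling, 1 h.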
row,Compound,IC50 [nM]
1,"[(1~{R},2~{R},4~{S})-2- amino-7-azabicyclo [2.2.1]heptan-7-yl]-[2-[6- ethyl-1-[(1~{R},2~{R})-2- phenylcyclopropyl]methyl] pyrrolo[2,3-b] pyridin-2-yl]-5-methoxy-3- methylimidazo[1,2-a] pyridin-7-yl]methanone [Example 492]",2090
2,"~{N}-[2-[7-[(3~{S}, 4~{R})-3-amino-4- hydroxypiperidine-1- carbonyl]-3-ethyl- 5-methoxyimidazo[1,2- a]pyridin-2-yl]-1- (cyclopropylmethyl)pyrrolo [2,3-b]pyridin-6-yl]-~{N}- (difluoromethyl) methanesulfonamide [Example 400]",847
3,"~{N}-[(1~{R})-1-[2-[7- [(1~{R},2~{R},4~{S})-2- amino-7- azabicyclo[2.2.1]heptane-7- carbonyl]- 5-methoxy-3-methylimidazo [1,2-a]pyridin-2-yl]-1- (cyclopropylmethyl)pyrrolo [2,3-b]pyridin-6-yl]ethyl]- 3,3-dimethylcyclobutane-1- carboxamide [Example 71]",63.4
4,"~{N}-[(1~{R})-1-[2-[7- [(1~{R},2~{R},4~{S})-2- amino-7- azabicyclo[2.2.1]heptane- 7-carbonyl]-3-cyclopropyl- 5-methoxyimidazo [1,2-a]pyridin-2-yl]-1-(1- bicyclo[1.1.1] pentanylmethyl)pyrrolo [2,3-b]pyridin-6-yl]ethyl]- 3-fluorobicyclo[1.1.1] pentane-1-carboxamide [Example 487]",331
5,"~{N}-[(1~{R})-1-[2-[7- [(1~{R},2~{R},4~{S})- 2-amino-7-azabicyclo [2.2.1]heptane- 7-carbonyl]-5-methoxy- 3-methylimidazo [1,2-a]pyridin-2-yl]-1- (cyclopropylmethyl) pyrrolo[2,3-b]pyridin- 6-ylethyl]-2,2- dimethylcyclopropane- 1-carboxamide [Example 70]",63.2
